Test results reported in PubChem BioAssay (NCI).
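Results reflect a 48-hour exposure of cells in 96-well plates to compound at five concentrations. TGI: total growth inhibition.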

Key:
Experiment in all cases: DTP human tumour cell line panel, 48 h
OVCAR-5 ovarian = test system: OVCAR-5 ovarian
SF-539 CNS = test system: SF-539 CNS
MCF7 breast = test system: MCF7 breast
SK-MEL-5 melanoma = test system: SK-MEL-5 melanoma
NCI-H522 lung = test system: NCI-H522 lung
RXF 393 renal = test system: RXF 393 renal
SW-620 colon = test system: SW-620 colon
SNB-19 CNS = test system: SNB-19 CNS
BT-549 breast = test system: BT-549 breast
MALME-3M melanoma = test system: MALME-3M melanoma

Structure (SMILES)	TGI (OVCAR-5 ovarian)	TGI (SF-539 CNS)	TGI (MCF7 breast)	TGI (SK-MEL-5 melanoma)	TGI (NCI-H522 lung)	TGI (RXF 393 renal)	TGI (SW-620 colon)	TGI (SNB-19 CNS)	TGI (BT-549 breast)	TGI (MALME-3M melanoma)
Cc1cc(O)cc(O)c1N=Nc1ccc([N+](=O)[O-])cc1	85.1 µM	49.9 µM	> 100 µM	38.4 µM	14.5 µM	40.5 µM	> 100 µM	> 100 µM	54.1 µM	87.7 µM
N#CSCc1cccc(Nc2cc(=O)[nH]c(=O)[nH]2)c1	> 100 µM	98.6 µM	38.9 µM	99.1 µM	> 100 µM	> 100 µM	> 100 µM	> 100 µM	> 100 µM	> 100 µM
Brc1ccc2c3c1[C@@H]1O[C@@H]1c1cccc(c1-3)[C@@H]1O[C@H]21	34.3 µM	16.5 µM	> 100 µM	33.4 µM	31.4 µM	32.3 µM	46.9 µM	60.9 µM	43.2 µM	41.6 µM
O=C1C(C=NCCc2c[nH]c3ccccc23)C(C(F)(F)F)=NN1c1nc2ccccc2s1 (stereo not given)	78.8 µM	86.4 µM	57.2 µM	37.1 µM	43.6 µM	48.5 µM	> 100 µM	> 100 µM	66.3 µM	> 100 µM
COc1cc2c(cc1OC)C(=O)/C(=C/c1cc(C)c(O)c(C)c1)C2	13.5 µM	> 100 µM	> 100 µM	> 100 µM	> 95.9 µM	0.439 µM	> 100 µM	> 100 µM	> 100 µM	40.1 µM
CC(C)/C(Cl)=N\OC(=O)NNc1ccccc1	> 100 µM	> 100 µM	> 100 µM	> 54 µM	28.7 µM	> 100 µM	> 44.1 µM	> 100 µM	> 100 µM	38.3 µM
O=C1N[C@@H]2c3c(csc3Br)C(=O)[C@@H]2O1	> 100 µM	> 100 µM	> 100 µM	> 100 µM	68.3 µM	43.7 µM	50.5 µM	> 100 µM	> 100 µM	> 100 µM
O=C1/C(=C/c2ccc([N+](=O)[O-])cc2)CNC/C1=C\c1ccc([N+](=O)[O-])cc1	> 69.6 µM	5.59 µM	> 100 µM	25.3 µM	9.4 µM	25.1 µM	1.78 µM	10.6 µM	7.73 µM	> 100 µM
COc1ccc(NC2Oc3cc4c(cc3C(c3cc(OC)c(OC)c(OC)c3)C2C)OCO4)cc1 (stereo not given)	> 100 µM	0.492 µM	> 41.3 µM	4.09 µM	2.45 µM	> 100 µM	> 100 µM	> 100 µM	> 87.9 µM	> 100 µM
CCOP(=O)(OCC)/C(F)=C/c1ccccc1	> 100 µM	> 100 µM	> 100 µM	> 100 µM	> 100 µM	> 100 µM	> 100 µM	> 100 µM	> 100 µM	> 100 µM
Cc1ccc(C2=Nc3c(c(C)nn3-c3ccccc3)N=C(C(=O)O)C2)cc1	> 10 µM	> 10 µM	> 10 µM	> 10 µM	> 10 µM	> 10 µM	> 10 µM	> 10 µM	> 10 µM	> 10 µM
C=CC/C(C(=O)OC)=C(/C(=O)OC)N(CCC)CCC	> 100 µM	> 100 µM	> 100 µM	> 100 µM	> 100 µM	> 100 µM	> 100 µM	> 100 µM	> 100 µM	> 100 µM
Cc1ccc(C(=O)Nc2ccc(CP(=O)(O)O)cc2)cc1NC(=O)c1cccc(NC(=O)Nc2cccc(C(=O)Nc3cc(C(=O)Nc4ccc(CP(=O)(O)O)cc4)ccc3C)c2)c1	> 100 µM	> 100 µM	> 100 µM	> 100 µM	> 100 µM	> 100 µM	> 100 µM	> 100 µM	> 100 µM	> 100 µM
O=C1/C(=C/c2ccc(F)cc2)CNC/C1=C\c1ccc(F)cc1	8.99 µM	2.39 µM	8.83 µM	3.02 µM	3.26 µM	3.41 µM	0.754 µM	6.2 µM	3.67 µM	13.2 µM
CC1=CC=CC(C)(C)CC1(O[Si](C)(C)C)C(F)(F)F (stereo not given)	> 100 µM	> 100 µM	> 100 µM	> 100 µM	> 100 µM	> 100 µM	> 100 µM	> 100 µM	> 100 µM	> 100 µM
O=[N+]([O-])C(=C(Sc1ccccc1)Sc1ccccc1)C(Cl)=C(Cl)Cl	1.48 µM	5.81 µM	1.05 µM	3.58 µM	0.143 µM	1.99 µM	0.228 µM	24.8 µM	4.61 µM	1.37 µM
CC(=O)OCC1OC(n2c(=S)[nH]c(-c3ccccc3)c(C#N)c2=O)C(OC(C)=O)C(OC(C)=O)C1OC(C)=O (stereo not given)	> 100 µM	> 100 µM	> 100 µM	> 100 µM	> 100 µM	> 100 µM	> 100 µM	> 100 µM	> 100 µM	> 100 µM
CCN(CC)CCCn1c(=O)c2cccnc2n2c3c(=O)n(C)c(=O)n(C)c3nc12	> 100 µM	> 100 µM	> 100 µM	> 100 µM	> 100 µM	> 100 µM	> 100 µM	> 100 µM	> 100 µM	> 100 µM
COC(=O)CCCC(=O)C(=Nc1c(Cl)cccc1Cl)NNc1ccc(Cl)cc1	> 100 µM	> 100 µM	> 100 µM	> 90.9 µM	> 85.7 µM	> 68.2 µM	> 100 µM	> 100 µM	> 100 µM	> 100 µM
C/C(=N/NC(=S)Nc1cccc(C)c1)c1ccccn1	2.67 µM	5.62 µM	0.224 µM	1.6 µM	7.23 µM	3.55 µM	5.45 µM	14.3 µM	12.2 µM	8 µM
O=C(O)c1ccc(NS(=O)(=O)Cc2ccccc2)cc1	> 100 µM	> 100 µM	> 100 µM	> 100 µM	> 100 µM	> 100 µM	> 100 µM	> 100 µM	> 100 µM	> 100 µM
N#Cc1c2c(c(Nc3ccc(F)cc3)n3c1nc1ccccc13)CCC2	13.9 µM	9.56 µM	16 µM	8.52 µM	4.58 µM	7.9 µM	5.71 µM	22.1 µM	17.8 µM	19.9 µM
CSc1c(C(=O)Nc2ccc(C)cc2)c(N)[nH]c(=O)c1C#N	> 100 µM	> 100 µM	> 100 µM	> 100 µM	> 100 µM	> 100 µM	> 100 µM	> 100 µM	> 100 µM	> 100 µM
